Data published in patent US6245917A, “Crystalline sodium phenytoin monohydrate” (Warner-Lambert Company, priority 1999, dated 2001).

Experiment: Preliminary solubility studies, ethanol versus water
Format: physicochemical

O=C1NC(=O)C(c2ccccc2)(c2ccccc2)N1 [sodium phenytoin]
solubility in ethanol compared with water: less soluble in ethanol than it is in water
